Results: US9707244B2, “Compositions and methods for treating conditions that affect epidermis” (Gencia Corporation, priority 2013, dated 2017)

Tests used:
[1] = tested on: AG16409 fibroblasts from a child; test: 3D collagen cell culture system, young skin fibroblasts; assay type: cell-based, human
Experimental: (§1) The effects of Mitocreatine on skin fibroblasts cultured in a 3D matrix to better simulate in vivo milieu were examined. The cells were visualized by phase contrast light microscopy and their biological response to different concentrations of Mitocreatine evaluated. The 3D Collagen Cell Culture System from Millipore (Catalogue number ECM 675) was utilized.
(§2) All liquids were prepared according to manufacturer's instructions, and kept on ice. Tissue culture plates were coated with collagen by pipetting 500 μL of chilled Collagen Gel Solution into each well of a 24 well tissue culture plate. The plate was immediately transferred to a 37° C. incubator for 60 min to initiate polymerization of the collagen.
(§3) After the formation of the collagen gel, AG11073 and AG16409 cells were harvested and re-suspended at 4×10^5/mL and 1×10^6 cells were seeded onto the collagen gel. The cells were obtained using the procedure as described in Example 1.
(§4) After overnight incubation at 37° C. with 5% CO2 the media was replaced with fresh media containing various doses of Mitocreatine or the vehicle. Cells were visualized daily using phase contrast microscopy.
Fibroblasts from a person were cultured on a collagen matrix. Two days after seeding, cells were treated with a Mitocreatine at increasing amounts (0, 5, 15 and 25 μL). Five days post-treatment, collagen shrinkage was assayed by means of translucency.

[2] = tested on: AG11073 fibroblasts from a person; test: 3D collagen cell culture system, aged skin fibroblasts; assay type: cell-based, human; details: five days post-treatment
Experimental: as §1, §2, §3, §4
Fibroblasts from a person were cultured on a collagen matrix. Two days after seeding, cells were treated with a Mitocreatine at increasing amounts (0, 5, 15 and 25 μL). Five days post-treatment, collagen shrinkage was assayed by means of translucency. […]

[3] = RIPT (Repeat Insult Patch Test) study; assay type: in vivo, human; details: 0.1% topical formulation
[4] = tested on: ARPE-19 cells, a retinal pigmented epithelial cell line; test: WST-1 cell viability in senescent ARPE-19 cells; assay type: cell-based, human; details: up to 1 uM; twenty-four hours after treatment
Experimental: In the present invention ARPE-19 cells were used to evaluate whether Mitocreatine improves mitochondrial parameters and reduces ROS in a cell model of AMD. The cells were prematurely senescenced according to the protocol of Glotin et al. (2008). […] Cells were plated in a 96 well plate for analysis of WST-1 bioreduction, a formazan based dye similar to MTT whose bioreduction is largely dependent on the glycolytic production of NAD(P)H in viable cells and is routinely used to monitor cell viability.

[5] = tested on: adult participants; test: Double-blind, randomized, placebo-controlled study of 0.1% Mitocreatine lotion on the dorsum of the hand; assay type: in vivo, human
Experimental: This was followed by a double-blind, randomized, placebo-controlled safety and efficacy trial of 0.1% once-daily topical application of mitocreatine to the dorsum of hands. […]. After obtaining informed consent, participants were interviewed by a physician for screening for history of skin disease, allergy and general medical issues. An initial evaluation of skin on the dorsum of the hand was performed. Qualifying participants were issued the test articles and self-assessment forms, and instructed to apply the “Right hand” and “Left hand” vial contents to the dorsum of respective hands once daily, preferably in the evening. Participants were allowed the use of other cosmetics. Once a week the participants filled out the self-assessment forms as instructed during the initial evaluation. The questions in the forms pertained to comparisons of wrinkling, color, pigmented lesions, hydration, roughness and elasticity of skin between right and left hand. One question also elicited the subjective overall impression of skin appearance (better vs. worse) between the hands. […] The participants and the evaluator were blinded to the treated side until after the exit evaluation was finished.
Before the start of study a set of 30 consecutively numbered pairs of bottles containing drug or placebo creams was generated. Of these 30 pairs of bottles 15 pairs treated the right side treated and 15 pairs treated the left side with the drug. The order of right vs. left treatment pairs was random. Participants were assigned a number in the order of recruitment. 17 subjects participated in the study, whereof 15 completed the study. Two subjects dropped out of the study due to non-study related causes. Of the 15 remaining individuals, 9 had their right hand treated whereas 6 had their left hand treated. Data from initial and exit evaluations and self-report forms were tabulated and analyzed using Fisher's exact test and Pearson's chi-squared test. Skin on the dorsum of participants' hands was evaluated by a physician at the initial evaluation and at the conclusion of the study. None of the volunteers had lesions disqualifying from participation (neoplasm, large vascular lesions, wounds, burns, large scars).
The weekly self-report forms included questions about the following adverse outcomes: itching, redness, pain, swelling, blistering, other discoloration, skin cracking and dryness. Participants were also provided with a contact number and instructed to immediately report any of the listed or other worrisome events.

[6] = tested on: ARPE-19 cells, a retinal pigmented epithelial cell line; test: XF24 oxygen consumption in senescent ARPE-19 cells; assay type: cell-based, human; details: twenty-four hours after treatment; increasing concentrations
Experimental: In the present invention ARPE-19 cells were used to evaluate whether Mitocreatine improves mitochondrial parameters and reduces ROS in a cell model of AMD. The cells were prematurely senescenced according to the protocol of Glotin et al. (2008). […] Cells were plated in a XF24 (Seahorse Biosciences) plate for analysis of mitochondrial activities. Twenty-four hours before analysis in the XF24 instrument, cells were treated with increasing concentrations on mitocreatine and vehicle. Twenty-four hours after treatment basal oxygen consumption rates (OCR) were assayed. […] Cells were plated in a XF24 (Seahorse Biosciences) plate for analysis of mitochondrial activities. Twenty-four hours before analysis in the XF24 instrument, cells were treated with increasing concentrations on mitocreatine and vehicle. Twenty-four hours after treatment FCCP-stimulated oxygen consumption rates (maximal OCR) were assayed.

Compound: CN(CC(=O)NCCC[P+](c1ccccc1)(c1ccccc1)c1ccccc1)C(=N)N.Cl.[Cl-] [Mitocreatine, N^2-[ammonio(imino)methyl]-N^2-methyl-N-[3-(triphenylphosphonio)propyl] glycinamide dichloride]
- collagen translucency [1]: No change
- collagen matrix translucency [2]: dose-dependent increase
- allergenicity in RIPT [3]: hypoallergenic
- cell viability (WST-1) [4]: does not negatively impact cell viability
- adverse outcomes reported by participants ([5]; 0.1% lotion once daily, four weeks): No adverse outcomes
- pathological changes noted by the evaluating physician ([5]; 0.1% lotion once daily, final follow-up visit): No pathological changes
- participants who correctly identified the treated hand ([5]; 13/15, p=0.0074 by binomial test): 87%
- participants with improvement in wrinkles ([5]; drug hand, 7/15, p=0.0033): 45%
- participants with an improvement in general skin health ([5]; drug hand, 11/15, p=0.00025): 73%
- participants with improvement in thickness ([5]; drug hand, 13/15, p=0.0029): 87%
- participants with improvement in tightness ([5]; drug hand, 13/15, p=0.019): 87%
- participants reporting an improvement in at least two measures ([5]; drug hand, 14/15, 0.1% lotion, four weeks, p=0.0142): 93%
- basal oxygen consumption [6]: dose-dependent increase
- maximal oxygen consumption (FCCP-stimulated) [6]: dose-dependent increase
